Values of other authors, collected in patent publication US20060216350A1, “Ganglionic blocking agents for the treatment of epithelial diseases” (priority 2005, published 2006).

Test system: hand warts
Conditions: patients with hand warts; Sterling et al. 2001

For `O=C(O)c1ccccc1O` [Salicylic acid], the “clearance of warts, % of patients” value is given as 67%.
